In patent US11096941B2, “Methods of treating circadian rhythm sleep disorders” (Eisai R&D Management Co., Ltd., priority 2016, dated 2021):
Marks after values point to notes of the source that are not given here.

Legend:
[1] = test system: male senescence accelerated mouse prone-8 (SAMP8, P8) strain animals; test: Sleep/wake EEG/EMG recording and wake circadian phase in SAMP8 mice after oral administration; assay type: in vivo; settings: for Wake circadian phase, Phase (ZT): least square mean ± standard error
From the text: (§1) A compound of Formula (I) was finely crushed and suspended in vehicle, a mixture of 0.5% w/v methylcellulose 400 cP in distilled water. Experimental data were collected on male senescence accelerated mouse prone-8 (“SAMP8” or “P8”) strain animals and male senescence accelerated mouse resistant-1 (“SAMR1” or “R1”) strain animals at the age of 21 weeks. P8 mice are known to show accelerated symptoms of aging and also pathological and behavioral symptoms of Alzheimer's disease, while R1 mice are used to represent a normal aging process and are also used as a control strain for P8 mice. See, e.g., Miyamoto, et al., Exp. Geron., 1997, 32, 139-48; Morley et al., Curr. Pharm. Des., 2012, 18, 1123-30.
(§2) Electroencephalogram (“EEG”) and electromyogram (“EMG”) electrodes were implanted on each mouse at 17-18 weeks of age, and the mice were then allowed to recover for at least 18 days in individual recording cages, where they could freely move, under a 12-hour light/12-hour dark cycle. Amplified EEG and EMG signals were digitally recorded for 3 days, separated into individual 24-hour recordings, which were initiated at each lights-on event. During the first 30 minutes of the light cycle (ZT 0-0.5), each mouse received an oral administration of either vehicle or 3 mg/kg of the compound of Formula (I) in vehicle or 30 mg/kg of the compound of Formula (I) in vehicle, after which the sleep/wake behavior of mice was recorded until the next lights on event. Each mouse received every treatment in a cross-over fashion with one treatment per day in the following order: vehicle (10 mL/kg bodyweight), 3 mg/kg, and then 30 mg/kg. Some mice started with vehicle on day 1, some mice started with 3 mg/kg compound of Formula (I) on day 1, and some mice started with 30 mg/kg compound of Formula (I) on day 1.
(§3) EEG frequency and EMG activity signal data were analyzed using software from Kissei Comtec Co., Ltd. to characterize every 10 second epoch as either rapid eye movement (REM) sleep, non-REM sleep, or wakefulness. Then, accumulated wakefulness, non-REM sleep, and REM sleep times over the light cycle (11.5 hours) and the dark cycle (12 hours) were calculated. Additionally, latencies to sleep and REM sleep were calculated as the first appearance of 6 or more epochs of uninterrupted sleep or one or more epochs of REM sleep after the dosing event, respectively. The circadian rhythm parameter phase was determined as the inflection point of a cosine curve fit to the wakefulness distribution in 30 minute bins across the day for every individual mouse using JTK_CYCLE software. Hughes, et al., J. Biol. Rhythms, 2010, 25, 372-80.
(§4) The differences between P8 mice and R1 mice (control mice) were statistically analyzed by comparing sleep/wake behavior and circadian rhythm of the vehicle-treated animals of each strain, while the effect of administration of a compound of Formula (I) on sleep/wake behavior and circadian rhythm was statistically analyzed for each strain as the difference between sleep/wake behavior and circadian rhythm on the vehicle-administration day and sleep/wake behavior and circadian rhythm on a drug-administration day. Statistical analysis of wakefulness time, non-REM sleep time, REM sleep time and latency, and sleep latency was performed with a linear mixed model which specified animal as random effect, and day, strain, treatment and the interaction between strain and treatment as fixed effects with Kenward-Roger as denominator degrees of freedom using SAS software. For estimation of wakefulness phase and its covariance, a linear mixed model was used which assumed heterogeneous variance of strain and treatment combination with Kenward-Roger as denominator and degrees of freedom using SAS software.

[2] = test system: male senescence accelerated mouse resistant-1 (SAMR1, R1) strain animals; test: Sleep/wake EEG/EMG recording and wake circadian phase in SAMR1 mice after oral administration; assay type: in vivo
From the text: as §1, §2, §3, §4

[3] = P8 mice, 3 mg/kg oral at ZT 0-0.5
[4] = P8 mice, 30 mg/kg oral at ZT 0-0.5
[5] = P8 mice, 3 and 30 mg/kg oral during ZT 0-0.5, vs vehicle
[6] = P8 mice, 3 and 30 mg/kg oral, vs vehicle (FIG. 2)
[7] = 3 and 30 mg/kg oral during ZT 0-0.5, vs vehicle
[8] = 3 and 30 mg/kg oral, vs vehicle (FIG. 2)

Cc1ncc(OC[C@@]2(c3cccc(F)c3)C[C@H]2C(=O)Nc2ccc(F)cn2)c(C)n1 [compound of Formula (I), (1R,2S)-2-(((2,4-dimethylpyrimidin-5-yl)oxy)methyl)-2-(3-fluorophenyl)-N-(5-fluoropyridin-2-yl)cyclopropanecarboxamide]
Covariance of Phase [1, 3]: 1.32 | Wake circadian phase, Phase (ZT) [1, 3]: 14.00 ± 0.56 ZT | Covariance of Phase [1, 4]: 2.11 | Wake circadian phase, Phase (ZT) [1, 4]: 15.41 ± 0.64^b ZT | wakefulness time during light time ([1]; P8 mice, 3 and 30 mg/kg oral at beginning of light time, ZT 0.5-12, vs vehicle (FIG. 1A)): reduces, in a dose-dependent manner, wakefulness | phase covariance and phase variability (in words) [1, 5]: reduction in phase covariance and phase variability | wake phase shift (in words) [1, 5]: dose-dependent and significant delay (right-shift) of the wake phase | wakefulness time during dark time ([1]; P8 mice, 3 and 30 mg/kg oral in previous light time, ZT 12-24 (FIG. 1A)): dose-dependent increase in wakefulness | non-REM sleep time during dark time ([1]; P8 mice, 3 and 30 mg/kg oral in previous light time, ZT 12-24 (FIG. 1B)): decreases in non-REM sleep and REM sleep | REM sleep time during dark time ([1]; P8 mice, 3 and 30 mg/kg oral in previous light time, ZT 12-24 (FIG. 1C)): decreases in non-REM sleep and REM sleep | non-REM sleep time during light time ([1]; P8 mice, 3 and 30 mg/kg oral, ZT 0.5-12, vs vehicle (FIG. 1B)): increases non-REM sleep | REM sleep time during light time ([1]; P8 mice, 3 and 30 mg/kg oral, ZT 0.5-12, vs vehicle (FIG. 1C)): dose-dependent increase in the amount of REM sleep | REM sleep latency [1, 6]: dose-dependent reduction of sleep and REM sleep latencies | sleep latency [1, 6]: dose-dependent reduction of sleep and REM sleep latencies | wake phase relative to vehicle-treated R1 mice ([1]; treated P8 mice, administration during ZT 0-0.5): correction to the level of vehicle-treated R1 mice | amounts of wake and non-REM sleep in light time relative to vehicle-treated R1 mice ([1]; treated P8 mice, light time): normalized to the level of vehicle-treated R1 mice | Covariance of Phase ([2]; 3 mg/kg oral at ZT 0-0.5): 5.18 | Wake circadian phase, Phase (ZT) ([2]; 3 mg/kg oral at ZT 0-0.5, least square mean ± standard error): 15.65 ± 0.87 ZT | vigilance states (wakefulness, non-REM sleep, REM sleep) during dark time ([2]; 3 mg/kg oral in previous light time, ZT 12-24): no effect on each of the vigilance states | Covariance of Phase ([2]; 30 mg/kg oral at ZT 0-0.5): 0.05 | Wake circadian phase, Phase (ZT) ([2]; 30 mg/kg oral at ZT 0-0.5, least square mean ± standard error): 17.02 ± 0.35^a ZT | wakefulness time during dark time ([2]; 30 mg/kg oral in previous light time, ZT 12-24 (FIG. 1A)): decrease of wakefulness | non-REM sleep time during dark time ([2]; 30 mg/kg oral in previous light time, ZT 12-24 (FIG. 1B)): increase of non-REM sleep | wakefulness time during light time ([2]; 3 and 30 mg/kg oral at beginning of light time, ZT 0.5-12, vs vehicle (FIG. 1A)): reduces, in a dose-dependent manner, wakefulness | phase covariance and phase variability (in words) [2, 7]: reduction in phase covariance and phase variability | wake phase shift (in words) [2, 7]: dose-dependent significant delay (right-shift) of the wake phase | non-REM sleep time during light time ([2]; 3 and 30 mg/kg oral, ZT 0.5-12, vs vehicle (FIG. 1B)): increases non-REM sleep | REM sleep time during light time ([2]; 3 and 30 mg/kg oral, ZT 0.5-12, vs vehicle (FIG. 1C)): dose-dependent increase in the amount of REM sleep | REM sleep latency [2, 8]: dose-dependent reduction of sleep and REM sleep latencies | sleep latency [2, 8]: dose-dependent reduction of sleep and REM sleep latencies
